Laboratory results as given in ChEMBL document CHEMBL1158619, “Synthesis and biological activity of oxadiazole and triazolothiadiazole derivatives as tyrosinase inhibitors” (Bioorg Med Chem Lett, 2010).
The source made the active and inactive calls. The calls are words filed in the database; no cut-off is given here.

target: T1, Tyrosinase (Agaricus bisporus, UniProt O42713)
T1 sequence (O42713 whole entry): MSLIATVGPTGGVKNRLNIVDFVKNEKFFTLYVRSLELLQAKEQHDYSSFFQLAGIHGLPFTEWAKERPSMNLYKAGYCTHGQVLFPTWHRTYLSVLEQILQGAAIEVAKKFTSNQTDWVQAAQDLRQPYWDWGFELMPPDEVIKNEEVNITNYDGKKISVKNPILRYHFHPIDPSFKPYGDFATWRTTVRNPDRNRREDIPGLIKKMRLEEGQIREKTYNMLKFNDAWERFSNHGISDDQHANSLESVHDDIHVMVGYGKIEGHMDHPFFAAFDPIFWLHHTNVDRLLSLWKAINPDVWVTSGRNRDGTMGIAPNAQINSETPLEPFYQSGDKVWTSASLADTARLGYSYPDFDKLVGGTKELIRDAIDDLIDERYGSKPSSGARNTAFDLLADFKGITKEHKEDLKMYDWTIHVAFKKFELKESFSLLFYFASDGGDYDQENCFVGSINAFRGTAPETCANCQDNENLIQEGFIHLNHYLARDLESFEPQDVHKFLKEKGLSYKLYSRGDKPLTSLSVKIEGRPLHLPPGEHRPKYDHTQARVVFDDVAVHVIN
Description: Inhibition of mushroom tyrosinase preincubated for 5 mins before addition of L-DOPA measured after 10 mins

| IC50 | SMILES |
| --- | --- |
| 0.97 µM | S=c1oc(Cc2cccc3ccccc23)nn1CN1CCCCC1 |
| 1.49 µM | CN1CCN(Cn2nc(Cc3cccc4ccccc34)oc2=S)CC1 |
| 1.33 µM | S=c1oc(Cc2cccc3ccccc23)nn1CN1CCCC1 |

The next lines start with the compound.

| SMILES | IC50 |
| --- | --- |
| S=c1oc(Cc2cccc3ccccc23)nn1CN1CCOCC1 | 1.34 µM |
| S=c1oc(Cc2cccc3ccccc23)nn1CN1CCNCC1 | 0.87 µM |

target: T2, Tyrosinase (Agaricus bisporus) (UniProt O42713); test: Inhibition of mushroom tyrosinase at 50 uM preincubated for 5 mins before addition of L-DOPA measured after 10 mins
T2 sequence (whole entry): T1 sequence (O42713 whole entry)

| inhibition | SMILES |
| --- | --- |
| inactive | c1ccc2c(Cc3nnc4sc(-c5nccc6ccccc56)nn34)cccc2c1 |
| inactive | c1ccc(-c2nnc(SCCN3CCCCC3)o2)cc1 |
| inactive | Cc1cc(C)n(-c2ccc(-c3nn4c(-c5ccccc5Cl)nnc4s3)cc2)n1 |
| inactive | c1ccc(-c2nnc3sc(-c4nccc5ccccc45)nn23)cc1 |
| inactive | Clc1ccccc1-c1nnc(SCCN2CCOCC2)o1 |
| inactive | Cc1cc(C)n(-c2ccc(-c3nn4c(Cc5cccc6ccccc56)nnc4s3)cc2)n1 |

Further lines, the compound ahead of its results:

| SMILES | inhibition |
| --- | --- |
| Cc1cc(C)n(-c2ccc(-c3nn4c(-c5ccccc5)nnc4s3)cc2)n1 | inactive |
| Clc1ccccc1-c1nnc(SCCN2CCCCC2)o1 | inactive |
| Clc1ccccc1-c1nnc2sc(-c3nccc4ccccc34)nn12 | inactive |
| c1ccc2c(Cc3nnc(SCCN4CCCCC4)o3)cccc2c1 | inactive |
| Clc1ccccc1-c1nnc2sc(-c3cccnc3)nn12 | inactive |
